Measurements taken from patent US20060167271A1, “Purified compounds that inhibit intracellular alphax4/paxillin binding” (priority 2002, published 2006).
Read-outs that look alike come from different tables or passages of the source. Values belong to the compound of their own block, whether it stands above or below them.

Experiments:
[1] = molecular target: T1, binding of Paxillin to the α4 tail protein (Homo sapiens, UniProt P13612+P49023); assay: Integrin tail affinity chromatography binding study
T1 construct: The design and production of recombinant cytoplasmic α4 tail polypeptide have been described; made in house; host or cells: E. coli BL21(DE3)pLysS for the α4 tail
Protocol: FIG. 6 in two parts as 6A and 6B includes results of an affinity chromatography binding study (6A) and scanning densitometry results shown in graphical form for the bound Paxillin (6B). In 6A, recombinant HA-tagged GST-Paxillin (100 nM) was added to Ni^2+-charged resin loaded with α4 tail protein in the absence (lane a) or presence of compound 11-A7B7C7 (lane b, 5 μM; lane c, 25 μM; lane d, 100 μM) or compound 11-A6B6C6 (lane e, 25 μM). Bound protein was collected and separated by SDS-PAGE under reducing conditions, transferred to a nitrocellulose membrane, and stained with HA-tag-specific antibody, 12CA5. In 6B, bound Paxillin was quantified by scanning densitometry of those immunoblots using the NIH Image program. The depicted results are representative from two studies.
In order to confirm the effectiveness and selectivity of Compound 11-A7B7C7 at inhibiting Paxillin/α4 binding, a series of binding studies was conducted using affinity chromatography techniques [Liu S et al. (1999) Nature 402, 676-681; and Pfaff et al. (1998) J. Biol. Chem. 273, 6104-6109]. […] Bound protein was collected and separated by electrophoresis and analyzed by immunoblotting.
Integrin tail affinity chromatography was performed as described [Rose (2001) J. Immunol. 167, 2824-2830]. […]

[2] = molecular target: T2, Paxillin/α4 binding (immobilized His-tagged α4 tail, soluble recombinant Paxillin) (Homo sapiens, UniProt P13612+P49023); assay: Immobilized Paxillin/α4 binding assay (ELISA)
T2 construct: The design and production of recombinant cytoplasmic α4 tail polypeptide have been described; made in house; host or cells: E. coli BL21(DE3)pLysS for the α4 tail
Protocol: FIG. 4 is a schematic representation of the high throughput screening by ELIZA used herein in which the α4 tail is coated onto a Ni-NTA microtiter plate (a), Paxillin is permitted to bind to α4 (b), first antibody is added (anti-Paxillin) (c), second antibody is added (HRP-conjugated, anti-mouse) (d), and Pax/α4 binding efficiency is measured by detection at 490 nm (e). For binding inhibition, compounds were added during Paxillin incubation (step b). […], zero % inhibition was measured from incubation with Paxillin and no compound.
Initially, roughly 40,000 compounds were screened in approximately 2000 wells (most as a mixture of 10 compounds, 50 μM total concentration) in an ELISA assay using an immobilized His-tagged α4 tail [Pfaff et al. (1998) J. Biol. Chem. 273, 6104-6109] and examining the binding inhibition of soluble recombinant Paxillin [Salgia et al. (1995) J. Biol. Chem. 270, 5039-5047] (FIG. 3).
Paxillin/α4 binding assays were performed as follows. Ni-NTA HisSorb microtiter strips (Qiagen) were coated overnight at 4° C. with purified α4 tail integrin (5 μg/ml, 100 μl per well) in PBS buffer (8 mM Na2HPO4, 1.5 mM KH2PO4, 135 mM NaCl, 2.5 mM KCl [pH 7.4]) supplemented with heat-denatured BSA (0.2%). The plates were washed three times with PBS buffer to remove unbound integrin, blocked with 150 μl of heat-denatured 1% BSA (denatured at 85° C. for 30 minutes and supplemented with 0.05% sodium azide) for 1 hour at room temperature, and washed again three times with PBS buffer.
Purified Paxillin in binding buffer (10% DMSO, 0.2% BSA in PBS buffer) was added to the wells at a concentration of 5 μg/ml in the presence or absence of compounds (1 mM DMSO stock solutions). […] As a control, blocked wells without integrin were examined for binding. After 1 hour at room temperature, the wells were washed three times with PBS buffer, incubated with first antibody (12CA5 ascites, 1/10000 in PBS plus 1% BSA, 100 μL) for 1 hour at room temperature, then with second antibody (100 μl HRP-conjugated anti-mouse [Biosource] in PBS buffer plus 1% BSA) for 1 hour at room temperature. Each well was treated with 50 μl of substrate solution (4 mg o-phenylenediamine, 4 μl of 30% H2O2, 80 mM citrate phosphate [pH 5]) and stopped after 10 minutes at room temperature with 50 μl H2SO4 (2 N). Binding was quantitated on a vmax kinetic microplate reader (Molecular Devices) at 490 nm. Zero % inhibition control was measured with Paxillin and no compound, and 100% inhibition control (background) was measured with no Paxillin and no compound. Each well was duplicated and percent inhibition was averaged.

[3] = system: integrin α4β1-mediated migration of Jurkat T cells; assay: Cell migration assay (modified Boyden chamber); type: cell-based; settings: Homo sapiens
Protocol: Cell migration was assayed in a modified Boyden chamber assay system as previously described [Rose et al. (2001) J. Immunol. 167, 2824-2830]. […] 167, 2824-2830]. Transwells (Costar, Corning) polycarbonate membranes containing 3.0 μm pores were coated with 5 μg/ml recombinant soluble VCAM-1. Membranes were blocked with 2% BSA in PBS for 30 minutes at room temperature. 2.0×10^5 cells in RPMI-1640 containing the indicated concentration of the compound and a final concentration of 0.1% DMSO were added to the top chamber. SDF-1α (R&D Systems) at a final concentration of 15 ng/ml was added to the bottom chamber. Cells were permitted to migrate for 4 hours at 37° C. Cells in the bottom chamber were enumerated with a hemocytometer, and data are expressed as percent inhibition of migration. Depicted are the mean and range of duplicate determinations from one of two studies with similar results.
The Jurkat E6-1 T leukemic cell line was purchased from American Type Culture Collection (ATCC), Rockville, Md. and cultured in RPMI-1640 (Biowhitaker Inc, Walkersville, Md.) supplemented with 10% FCS (Biowhitaker Inc), 1% glutamine, 50 units/ml penicillin, and 50 μg/ml streptomycin (Sigma Chemical, St Louis, Mo.).
Cell migration was assayed in a modified Boyden chamber assay system. […]

[4] = read-out: IC50 of Paxillin/α4 binding inhibition
[5] = read-out: Inhibition of Pax/α4 binding (% at 1 μM)

T2 sequence (P13612 1002-1032 limits assumed): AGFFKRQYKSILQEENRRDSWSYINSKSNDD
T2 sequence (P49023 1-557 isoform P49023-2): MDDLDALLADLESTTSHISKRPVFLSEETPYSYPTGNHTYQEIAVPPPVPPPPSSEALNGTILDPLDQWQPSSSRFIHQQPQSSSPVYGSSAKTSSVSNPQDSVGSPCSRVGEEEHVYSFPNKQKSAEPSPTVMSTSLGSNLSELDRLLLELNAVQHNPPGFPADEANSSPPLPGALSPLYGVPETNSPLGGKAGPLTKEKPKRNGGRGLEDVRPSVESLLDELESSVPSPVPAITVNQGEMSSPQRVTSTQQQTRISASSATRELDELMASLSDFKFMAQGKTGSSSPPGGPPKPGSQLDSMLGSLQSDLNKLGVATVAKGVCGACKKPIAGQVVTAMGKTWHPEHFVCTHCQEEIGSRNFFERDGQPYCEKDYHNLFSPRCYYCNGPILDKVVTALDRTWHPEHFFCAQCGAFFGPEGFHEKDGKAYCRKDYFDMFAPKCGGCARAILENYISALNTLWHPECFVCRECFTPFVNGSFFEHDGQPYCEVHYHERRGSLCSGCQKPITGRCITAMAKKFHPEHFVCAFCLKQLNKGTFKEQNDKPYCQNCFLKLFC
T1 sequence (P13612 1002-1032 limits assumed): as the sequence (P13612 1002-1032 limits assumed) above
T1 sequence (P49023 1-557 isoform P49023-2): as the sequence (P49023 1-557 isoform P49023-2) above

Compound: COC(=O)c1cc2c3c(ccc2[nH]1)N(C(=O)c1cc2c4c(ccc2[nH]1)N(C(=O)c1cc2c5c(ccc2[nH]1)N(C(=O)CCCN(C)C)CC5)CC4)CC3 [Compound 11-A7B7C7, DMABA-CDPI3-OMe]
Binding of Paxillin to the α4 tail protein ([1]; GST-Paxillin 100 nM, immunoblot): markedly reduced
Quantification of bound Paxillin (scanning densitometry) ([1]; concentrations as low as 5 μM): near background levels
inhibition at 1 µM ([2]; 1 μM, read-out: Inhibition (%) of α4/Paxillin Binding by Deconvoluted Samples of 11-AxByCz): 76%
IC50 [2, 4]: 0.3 µM
inhibition at 1 µM [2, 5]: 78%
inhibition at 15 µM ([3]; Jurkat, highest possible dose, 15 μM, read-out: Maximum inhibition of migration): ~70%
IC50 ([3]; Jurkat T cells, VCAM-1 coated membranes, SDF-1α, 4 hours, read-out: IC50 of inhibition of α4β1-mediated cell migration): ~10 µM

Inhibition of Pax/α4 binding (% at 1 μM) ([2]; 1 μM): 3%
Compound: COC(=O)c1cc2c3c(ccc2[nH]1)N(C(=O)OC(C)(C)C)CC3 [Compound 15, Boc-CDPI-OMe]

Inhibition of Pax/α4 binding (% at 1 μM) ([2]; 1 μM): 19%
Compound: COC(=O)c1cc2c3c(ccc2[nH]1)NCC3 [Compound 16, H-CDPI-OMe]

Inhibition of Pax/α4 binding (% at 1 μM) ([2]; 1 μM): 11%
Compound: O=C(O)c1cc2c3c(ccc2[nH]1)NCC3 [Compound 17, H-CDPI-OH]

Inhibition of Pax/α4 binding (% at 1 μM) ([2]; 1 μM): 6%
Compound: CC(C)(C)OC(=O)N1CCc2c1ccc1[nH]c(C(=O)O)cc21 [Compound 18, Boc-CDPI-OH]

Compound: COC(=O)c1cc2c3c(ccc2[nH]1)N(C(=O)c1cc2c4c(ccc2[nH]1)N(C(=O)OC(C)(C)C)CC4)CC3 [Compound 20, Boc-CDPI2-OMe]
Inhibition of Pax/α4 binding (% at 1 μM) ([2]; 1 μM): 13%

Inhibition of Pax/α4 binding (% at 1 μM) ([2]; 1 μM): 14%
Compound: COC(=O)c1cc2c3c(ccc2[nH]1)N(C(=O)c1cc2c4c(ccc2[nH]1)NCC4)CC3 [Compound 21, H-CDPI2-OMe]

Inhibition of Pax/α4 binding (% at 1 μM) ([2]; 1 μM): 27%
Compound: O=C(O)c1cc2c3c(ccc2[nH]1)N(C(=O)c1cc2c4c(ccc2[nH]1)NCC4)CC3 [Compound 23, H-CDPI2-OH]

Compound: COC(=O)c1cc2c3c(ccc2[nH]1)N(C(=O)c1cc2c4c(ccc2[nH]1)N(C(=O)c1cc2c5c(ccc2[nH]1)NCC5)CC4)CC3 [Compound 25, H-CDPI3-OMe]
IC50 [2, 4]: 0.3 µM
inhibition at 1 µM [2, 5]: 73%

Compound: O=C(O)c1cc2c3c(ccc2[nH]1)N(C(=O)c1cc2c4c(ccc2[nH]1)N(C(=O)c1cc2c5c(ccc2[nH]1)NCC5)CC4)CC3 [Compound 26, H-CDPI3-OH]
Paxillin/α4 binding inhibition, result in words [2]: only a slight reduction in potency
inhibition at 1 µM [2, 5]: 68%
IC50 ([2]; read-out: inhibition of Pax/α4 binding (IC50 in μM)): 0.5 µM

Compound: Boc-CDPI3-OMe [Compound 24]
Paxillin/α4 binding inhibition, result in words [2]: substantial loss of activity
Inhibition of Pax/α4 binding (% at 1 μM) ([2]; 1 μM): 25%

Inhibition of Pax/α4 binding (% at 1 μM) ([2]; 1 μM): 36%
Compound: DMABA-CDPI2-OMe [Compound 22]

Inhibition of Pax/α4 binding (% at 1 μM) ([2]; 1 μM): −3%
Compound: DMABA-CDPI-OMe [Compound 19]
